These are literature values, as cited in PMC7904743, “WIDOCK: a reactive docking protocol for virtual screening of covalent inhibitors” (Journal of Computer-Aided Molecular Design, 2021).

For one data set, the system named is OTUB2. The conditions noted are these: experimental actives if % labeling higher than 50%; cited from earlier work.
The test system of a further data set is NUDT7. The conditions noted are these: protein labeling at 200 μM; experimental actives if % labeling higher than 50%; cited from earlier work.
The conditions of data set [1]: thiol reactivity, cited from earlier work.
[2] abbreviates: natural log of average rate constant k.
The mark [3] stands for this setting: natural logarithm of average rate constant.

Where two headings read alike, the source gives them in different places.

In the case of `O=C(CCl)N1CCN(Cc2cccc(Cl)c2)CC1` [PCM-0102269, O=C(CCl)N1CCN(Cc2cccc(Cl)c2)CC1], in the data set on OTUB2, the OTUB2 % labeling is 19%. Also, in the data set on NUDT7, the NUDT7 % labeling is listed as 0%. Also, the “ln(avg k)” value in data set [1] (setting [2]) and in data set [1] (setting [3]) was -15.481 throughout.

As to `Cc1ccc(C(C)NC(=O)CCl)cc1C` (stereo not shown) [PCM-0102270, Cc1ccc(C(C)NC(=O)CCl)cc1C], the OTUB2 % labeling with OTUB2 is recorded as 51%. In the data set with NUDT7, the NUDT7 % labeling was 0%. Besides, the “ln(avg k)” value in data set [1] (setting [2]) and in data set [1] (setting [3]) was -16.558 in each case.

On to `CC(C)N(C(=O)CCl)c1ccccc1` [PCM-0102272, CC(C)N(C(=O)CCl)c1ccccc1], for which the OTUB2 % labeling in the data set with OTUB2 is 0%. Further, the NUDT7 % labeling in the data set with NUDT7 is 22%. For the same compound, the “ln(avg k)” value in data set [1] (setting [2]) and in data set [1] (setting [3]) was -15.780 in each case.

For the compound `CC(=O)c1ccc(N2CCN(C(=O)CCl)CC2)c(F)c1` [PCM-0102273, CC(=O)c1ccc(N2CCN(C(=O)CCl)CC2)c(F)c1], in the data set with OTUB2, the OTUB2 % labeling is 0%. In addition, the NUDT7 % labeling in the data set with NUDT7 is on record as 20%. For the same compound, the “ln(avg k)” value in data set [1] (setting [2]) and in data set [1] (setting [3]) was -15.374 each time.

As to `O=C(CCl)Nc1cccnc1Cl` [PCM-0102274, O=C(CCl)Nc1cccnc1Cl], the OTUB2 % labeling with OTUB2 is 0%. Also, the NUDT7 % labeling in the data set with NUDT7 is reported as 0%. In addition, the “ln(avg k)” value in data set [1] (setting [2]) and in data set [1] (setting [3]) was -16.315 throughout.

As for `CC(NC(=O)CCl)c1cccc2ccccc12` (stereo not shown) [PCM-0102275, CC(NC(=O)CCl)c1cccc2ccccc12], the OTUB2 % labeling in the data set on OTUB2 was 73%. For the same compound, the NUDT7 % labeling in the data set on NUDT7 was 32%. The “ln(avg k)” value in data set [1] (setting [2]) and in data set [1] (setting [3]) was -16.435 in each case.

As to `O=C(CCl)Nc1ccc(OC(F)(F)F)cc1` [PCM-0102276, O=C(CCl)Nc1ccc(OC(F)(F)F)cc1], the OTUB2 % labeling with OTUB2 is 36%. For the same compound, the NUDT7 % labeling with NUDT7 is recorded as 24%. The “ln(avg k)” value in data set [1] (setting [2]) and in data set [1] (setting [3]) was -15.893 throughout.

Take `O=C(CCl)N1CCN(Cc2ccc(Cl)s2)CC1` [PCM-0102277, O=C(CCl)N1CCN(Cc2ccc(Cl)s2)CC1]: in the data set with OTUB2, the OTUB2 % labeling is on record as 9%. Also, in the data set with NUDT7, the NUDT7 % labeling was 0%. The “ln(avg k)” value in data set [1] (setting [2]) and in data set [1] (setting [3]) was -15.648 each time.

In the case of `O=C(CCl)Nc1ccc(I)cc1` [PCM-0102278, O=C(CCl)Nc1ccc(I)cc1], the OTUB2 % labeling with OTUB2 was 24%. Further, the NUDT7 % labeling in the data set with NUDT7 is on record as 9%. The “ln(avg k)” value in data set [1] (setting [2]) and in data set [1] (setting [3]) was -15.784 throughout.

For `CNC(=O)CNC(=O)CCl` [PCM-0102279, CNC(=O)CNC(=O)CCl], the OTUB2 % labeling in the data set on OTUB2 is given as 10%. The NUDT7 % labeling in the data set on NUDT7 is recorded as 0%. Besides, the “ln(avg k)” value in data set [1] (setting [2]) and in data set [1] (setting [3]) was -16.473 each time.

As for `O=C(CCl)NCc1cccs1` [PCM-0102280, O=C(CCl)NCc1cccs1], in the data set with OTUB2, the OTUB2 % labeling was 22%. In addition, in the data set with NUDT7, the NUDT7 % labeling was 0%. The “ln(avg k)” value in data set [1] (setting [2]) and in data set [1] (setting [3]) was -16.889 throughout.

On to `O=C(CCl)N1CCN(S(=O)(=O)c2ccccc2F)CC1` [PCM-0102281, O=C(CCl)N1CCN(S(=O)(=O)c2ccccc2F)CC1], for which the OTUB2 % labeling with OTUB2 is recorded as 0%. Further, the NUDT7 % labeling in the data set with NUDT7 was 14%. Further, the “ln(avg k)” value in data set [1] (setting [2]) and in data set [1] (setting [3]) was -15.235 throughout.

`CC(=O)c1ccccc1NC(=O)CCl` [PCM-0102282, CC(=O)c1ccccc1NC(=O)CCl]: in the data set with OTUB2, the OTUB2 % labeling was 0%. For the same compound, in the data set on NUDT7, the NUDT7 % labeling is recorded as 0%. Further, the “ln(avg k)” value in data set [1] (setting [2]) and in data set [1] (setting [3]) was -16.331 throughout.

`CC(=O)c1cccc(N2Cc3ccccc3C2=NC(=O)CCl)c1` [PCM-0102283, CC(=O)c1cccc(N2Cc3ccccc3C2=NC(=O)CCl)c1]: in the data set on OTUB2, the OTUB2 % labeling is reported as 0%. Further, in the data set on NUDT7, the NUDT7 % labeling is listed as 0%. Also, the “ln(avg k)” value in data set [1] (setting [2]) and in data set [1] (setting [3]) was -16.303 throughout.

For `O=C(CCl)Nc1cc(F)ccc1F` [PCM-0102284, O=C(CCl)Nc1cc(F)ccc1F], the OTUB2 % labeling in the data set on OTUB2 is 28%. In the data set on NUDT7, the NUDT7 % labeling is listed as 0%. Moreover, the “ln(avg k)” value in data set [1] (setting [2]) and in data set [1] (setting [3]) was -15.941 throughout.

For the compound `CN(C)S(=O)(=O)c1ccc2c(c1)CCCN2C(=O)CCl` [PCM-0102285, CN(C)S(=O)(=O)c1ccc2c(c1)CCCN2C(=O)CCl], the OTUB2 % labeling in the data set with OTUB2 was 0%. In addition, the NUDT7 % labeling in the data set with NUDT7 is on record as 0%. Besides, the “ln(avg k)” value in data set [1] (setting [2]) and in data set [1] (setting [3]) was -15.789 in each case.

For `N#Cc1c(NC(=O)CCl)sc2c1CCCCC2` [PCM-0102286, N#Cc1c(NC(=O)CCl)sc2c1CCCCC2], the OTUB2 % labeling in the data set with OTUB2 is on record as 0%. For the same compound, the NUDT7 % labeling in the data set with NUDT7 is given as 33%. Further, the “ln(avg k)” value in data set [1] (setting [2]) and in data set [1] (setting [3]) was -16.020 throughout.

Turning to `O=C(CCl)N1CCN(Cc2cccc3ccccc23)CC1` [PCM-0102287, O=C(CCl)N1CCN(Cc2cccc3ccccc23)CC1], in the data set on OTUB2, the OTUB2 % labeling is 29%. For the same compound, the NUDT7 % labeling in the data set on NUDT7 is 0%. The “ln(avg k)” value in data set [1] (setting [2]) and in data set [1] (setting [3]) was -15.635 throughout.

For the compound `O=C(CCl)Nc1cc(Cl)ccc1Cl` [PCM-0102288, O=C(CCl)Nc1cc(Cl)ccc1Cl], the OTUB2 % labeling with OTUB2 is reported as 0%. In the data set with NUDT7, the NUDT7 % labeling is given as 6%. Moreover, the “ln(avg k)” value in data set [1] (setting [2]) and in data set [1] (setting [3]) was -16.095 each time.

Regarding `O=C(CCl)Nc1cccc(C(F)(F)F)c1` [PCM-0102290, O=C(CCl)Nc1cccc(C(F)(F)F)c1], the OTUB2 % labeling in the data set on OTUB2 was 26%. The NUDT7 % labeling in the data set on NUDT7 is 12%. The “ln(avg k)” value in data set [1] (setting [2]) and in data set [1] (setting [3]) was -15.516 in each case.

Consider `O=C(CCl)NC1CS(=O)(=O)CC1Cl` (stereo not shown) [PCM-0102291, O=C(CCl)NC1CS(=O)(=O)CC1Cl], for which the OTUB2 % labeling in the data set on OTUB2 is 0%. Besides, in the data set with NUDT7, the NUDT7 % labeling was 12%. Also, the “ln(avg k)” value in data set [1] (setting [2]) and in data set [1] (setting [3]) was -16.221 each time.

With `CC1CCCCC1NC(=O)NC(=O)CCl` (stereo not shown) [PCM-0102292, CC1CCCCC1NC(=O)NC(=O)CCl], the OTUB2 % labeling with OTUB2 is 24%. Also, the NUDT7 % labeling in the data set with NUDT7 is 0%. Besides, the “ln(avg k)” value in data set [1] (setting [2]) and in data set [1] (setting [3]) was -15.785 in each case.

For `O=C(CCl)N1CCSC1c1ccccc1F` (stereo not shown) [PCM-0102293, O=C(CCl)N1CCSC1c1ccccc1F], the OTUB2 % labeling in the data set on OTUB2 is on record as 12%. In addition, in the data set with NUDT7, the NUDT7 % labeling was 83%. The “ln(avg k)” value in data set [1] (setting [2]) and in data set [1] (setting [3]) was -15.618 each time.

`O=C(CCl)Nc1nc2ccc(F)cc2s1` [PCM-0102294, O=C(CCl)Nc1nc2ccc(F)cc2s1]: the OTUB2 % labeling in the data set with OTUB2 was 0%. Further, the NUDT7 % labeling in the data set on NUDT7 was 89%. Moreover, the “ln(avg k)” value in data set [1] (setting [2]) and in data set [1] (setting [3]) was -15.413 each time.

Consider `O=C(CCl)N1N=C(c2cccs2)CC1c1ccco1` (stereo not shown) [PCM-0102295, O=C(CCl)N1N=C(c2cccs2)CC1c1ccco1], for which the OTUB2 % labeling with OTUB2 is recorded as 6%. In addition, the NUDT7 % labeling in the data set with NUDT7 is reported as 46%. In addition, the “ln(avg k)” value in data set [1] (setting [2]) and in data set [1] (setting [3]) was -14.545 each time.
